According to patent publication US11382900B2, “Composition for preventing or treating sleep disorders” (AMOREPACIFIC CORPORATION, priority 2017, dated 2022):
Where two headings read alike, the source gives them in different places.

Experiments:
[1] = parameters: species or system C57BL/6 mice; settings: in vivo; for increase in body temperature: C57BL/6, mouse, 2 h; for concentration dependence of body temperature increase: mouse
Procedure: As described above, AMG 517, a representative reference drug as a TRPV1 antagonist, and the compound of Formula 1 of the present invention were tested for the increase in body temperature during transdermal administration.

[2] = Change in body temperature after oral administration (nonclinical); type: in vivo, Balb/c mice; settings: for change in body temperature, dose dependence: up to 4 hours, AMG 517 0.03, 0.1, 0.3 mg/kg, compound of Formula 1 3, 10, 30 mg/kg
Excerpt: Meanwhile, when the same drug was orally administered, a concentration-dependent increase in body temperature due to TRPV1 antagonism was observed as expected (see FIGS. 2A and 2B).

[3] = rats, oral dose of 3 mg/kg; cited from earlier work
TRPV1 = biological target: T1, TRPV1 (Rattus norvegicus, UniProt O35433); settings: rats; cited from earlier work
T1 construct: host or cells: living rats (endogenous protein)

[4] = oral administration for treatment of dental pain; cited from earlier work

T1 sequence (O35433 whole entry): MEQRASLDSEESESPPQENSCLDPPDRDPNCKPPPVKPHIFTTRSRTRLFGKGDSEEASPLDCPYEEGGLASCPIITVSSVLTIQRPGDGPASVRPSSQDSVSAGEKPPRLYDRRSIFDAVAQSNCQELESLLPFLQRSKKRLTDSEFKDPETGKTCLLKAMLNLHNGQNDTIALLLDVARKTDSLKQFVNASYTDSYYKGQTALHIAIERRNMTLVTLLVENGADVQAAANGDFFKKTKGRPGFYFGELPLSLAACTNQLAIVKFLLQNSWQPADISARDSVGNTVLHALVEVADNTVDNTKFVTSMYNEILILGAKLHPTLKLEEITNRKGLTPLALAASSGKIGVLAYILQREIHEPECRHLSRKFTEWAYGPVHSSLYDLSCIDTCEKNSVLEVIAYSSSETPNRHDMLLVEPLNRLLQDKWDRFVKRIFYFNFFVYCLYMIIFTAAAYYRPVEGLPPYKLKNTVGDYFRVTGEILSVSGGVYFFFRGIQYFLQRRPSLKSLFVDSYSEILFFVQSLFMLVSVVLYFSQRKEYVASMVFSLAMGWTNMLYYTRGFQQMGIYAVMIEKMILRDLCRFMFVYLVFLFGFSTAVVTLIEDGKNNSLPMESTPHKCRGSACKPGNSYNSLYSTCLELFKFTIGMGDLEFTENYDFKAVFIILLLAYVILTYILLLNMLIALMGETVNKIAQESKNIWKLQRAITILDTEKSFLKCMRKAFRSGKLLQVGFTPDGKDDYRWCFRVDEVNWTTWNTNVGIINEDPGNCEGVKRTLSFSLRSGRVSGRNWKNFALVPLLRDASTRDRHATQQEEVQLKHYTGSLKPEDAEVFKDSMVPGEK

SMILES | increase in body temperature [1] | concentration dependence of body temperature increase [1] | change in body temperature at lowest dose ([2]; 0.03 mg/kg) | change in body temperature, dose dependence [2] | increase in body temperature [3] | effective concentration to maximize analgesic efficacy (TRPV1) | body temperature raised in human [4] | hyperthermia side effect [4]
CC(=O)Nc1nc2c(Oc3cc(-c4ccc(C(F)(F)F)cc4)ncn3)cccc2s1 [AMG 517] | ~1.59 °C | significant concentration-dependent increase in body temperature | significantly increased body temperature | increased body temperature in a dose—dependent manner | about 1.3 °C | less than 0.3 mg/kg | up to 40 °C | concentration-dependent side effect of hyperthermia
CCCc1nc(C(F)(F)F)ccc1/C=C/C(=O)N[C@H](C)c1cc(F)c(NS(C)(=O)=O)c(F)c1 [compound of Formula 1] | ~0.84 °C | no concentration dependence was observed | – | increased body temperature in a dose—dependent manner | – | – | – | –
